The results in this text go back to a melting point compilation (Tetko et al.; mined from patent text by program, amines drawn as free bases though some values may be those of a salt).

Some results are limits rather than exact numbers.

The term melting point denotes the temperature, or range, at which the solid turns liquid. As to `CN1C(=O)C2(COc3cc4c(cc32)OCCO4)c2ccccc21` (configuration not stated), the melting point lay in the range of 152 to 154 °C.

For the compound `CC(=O)NCC1CN(c2ccc3c(c2)C(=O)CCCC3)C(=O)O1` (configuration not stated), the melting point is 120 to 121 °C.

`Cc1ccc(C)c(NC(=O)CN2CCN(c3ncccc3C#N)CC2)c1` displayed a melting point of 106 to 108 °C.

Compound `C#CCOC(=O)N(I)C(C)C(=O)OC` (configuration not stated) had a melting point of 100 to 102 °C.

Regarding `CC1=C(c2ccc(Cl)cc2)n2ncc(C(N)=O)c2NC1`, the melting point was in the range of 210 to 212 °C.

In turn, `CC1(C)NC(=O)N(c2ccc(Cl)c(C(F)(F)F)c2)C1=O` gave a melting point of 152 to 153 °C.

Compound `CC(=O)Nc1cc(C(C)=O)ccc1OCCCN1CCC(c2noc3cc(F)ccc23)CC1` displayed a melting point of 108 to 110 °C.

`Cc1sc(S(N)(=O)=O)cc1NC(=O)c1cnn2c(C(F)(F)F)cc(-c3ccc(C(F)(F)F)cc3)nc12` returned a melting point of 297 °C.

`NCCCN1CCC(c2c[nH]c3cc(F)ccc23)CC1` returned a melting point of 102 °C.

`Cc1oc(-c2ccc(S(C)(=O)=O)cc2)c(Oc2ccc(Cl)cc2)c(=O)c1Br` displayed a melting point of 251 °C.

`Cc1cccc(CC(=O)c2ccnc(Br)c2)n1` gave a melting point of 126 °C.

In turn, `Cc1cc(=O)oc2cccc(OC(=S)N(C)C)c12` yielded a melting point of 166 to 168 °C.

`c1ccc(-c2nn3c(N4CCCC4)nnc3c3ccccc23)cc1` displayed a melting point of 245 to 247 °C.

`CCCCOc1ccc(C(=O)N2CCCCc3sccc32)cc1` gave a melting point of 87 to 90 °C.

Turning to `Cc1cc(COc2cccc3c2CN(C2CCC(=O)NC2=O)C3=O)ccc1Cl` (configuration not stated), the melting point fell in the range of 217 to 219 °C.

`COc1cc(/C=C/c2ccc(N)cc2)cc(OC)c1OC`: the melting point fell in the range of 251 to 253 °C.

Consider `CCCCCc1cc2c(nc(O)n2CCCNS(C)(=O)=O)c(N)n1`, for which the melting point is 174 to 176 °C.

Compound `N/C(=C1/Sc2ccccc2C1=O)c1ccccc1F` yielded a melting point of 156 to 158 °C.

For the compound `COc1ccc2c(c1)c(C)cn2CCCCCC(=O)O`, the melting point is 134 to 137 °C.

`CC(=O)Nc1nc(N)nc(-c2ccc(Oc3ccccc3)cc2)n1` returned a melting point greater than 260 °C.

Regarding `Cc1ccnc2c1N=C(C#N)c1cccnc1N2C1CC1`, the melting point was 192 to 193 °C.

Compound `Cc1ccc(-c2nnnn2C)c(S(N)(=O)=O)c1` came in with a melting point of 161 to 171 °C.

Turning to `CCNc1cc(-c2c[nH]c(S)n2)ccn1`, the melting point is greater than 260 °C.

Turning to `CN(C(=O)NCCO)C1c2ccccc2Oc2ccccc21`, the melting point lay within 130 to 132 °C.

`COc1ccc(S(=O)(=O)Nc2ncnc(Cl)c2Cc2ccccc2OC)cc1` had a melting point of 149 to 151 °C.

As for `CC(C)(Cl)CC(N)C(=O)NC(C(=O)Nc1ccccc1)C(=O)c1ccccc1` (configuration not stated), the melting point fell in the range of 145 to 147 °C.

Regarding `Cc1ccccc1C(=O)NC(=O)NC1CN2CCC1CC2` (configuration not stated), the melting point was 216 to 217 °C.

The compound `COC(=O)c1ccc(OC2=C3N=C4CCCCC4=C3C(Cc3ccccc3F)C=C2)o1` (configuration not stated) gave a melting point of 121 to 122 °C.

The compound `O=C1c2ccccc2C(=O)N1CCCN1CCC(=C(c2ccccc2)c2ccccc2)CC1` yielded a melting point of 108 to 110 °C.

Regarding `CC1(C)NC(C[PH](=O)O)C(C)(C)S1` (configuration not stated), the melting point was 193 to 194 °C.

`SCc1cn2ccccc2n1`: the melting point lay within 168 to 178 °C.

For the compound `Cc1ncccc1NC(=NC#N)NC(NC(=O)CCCc1cccs1)C(C)(C)C` (configuration not stated), the melting point lay within 66 to 68 °C.

The compound `CCc1noc(-c2cccc3c2C(=O)N(C)Cc2c(-c4nc(CC)no4)ncn2-3)n1` gave a melting point of 173 to 174 °C.

The compound `CCOc1ccc(OCc2ccc(OCc3nc(-c4ccccc4)oc3C)cc2)c(CC(=O)O)c1` had a melting point of 122 to 123 °C.

Regarding `CCCCCCCCCCCCCCCCN(c1ccccc1)S(=O)(=O)c1ccc(Nc2cc(=O)n(-c3c(C)cc(Cl)cc3Cl)n2C(=O)OCC)cc1`, the melting point worked out at 85 °C.

On to `CCc1cc2c(ccc(=O)n2Cc2ccc(NC(=O)c3ccccc3C(=O)O)cc2)c(CC)n1`, for which the melting point lay within 237 to 240 °C.

With `CC(=NC(=Nc1ccccc1)N1CCOCC1)NC(C)(C)C`, the melting point fell in the range of 164 to 166 °C.

For `Cc1cc(NC2=NCCN2)n(CCC(C)C)n1`, the melting point lay in the range of 104 to 106 °C.

`O=C1CSc2c(ccc3ccccc23)N1` yielded a melting point of 211 to 212 °C.

Compound `CCc1cccc(C)c1CNc1cc(C(N)=O)nc2c1nc(C)n2C` displayed a melting point of 237 to 239 °C.

`CC(C)[Si](Oc1ccc2c(=O)c(N3CCC(O)(c4ccccc4)CC3)coc2c1)(C(C)C)C(C)C` returned a melting point of 163 to 164 °C.

For the compound `CCN(CC)C(=O)c1ccoc1-c1ccc(C=O)cc1`, the melting point is 64 to 66 °C.

In the case of `Oc1cccc(Oc2nnc(Cc3ccncc3)c3ccccc23)c1`, the melting point was 206 to 207 °C.

In turn, `CCOC(=O)C1NC(=O)C1OC` (configuration not stated) yielded a melting point of 91 to 92 °C.

In turn, `COc1c(-c2ccc(C=NNS(C)(=O)=O)cc2)cc(N2CCC(=O)NC2=O)cc1C(C)(C)C` gave a melting point of 209 to 211 °C.

Compound `CS(=O)(=O)Nc1c(C(=O)c2cccc(Br)c2)[nH]c2cc(Cl)ccc12` yielded a melting point of 184 to 185 °C.

Compound `COc1nc(C)cnc1NS(=O)(=O)c1cccnc1-c1ccc(NC(C)=O)cc1` came in with a melting point of 208 to 209 °C.

The compound `CNS(=O)(=O)Cc1cc(Br)c(NC(=O)C(F)(F)F)c(Br)c1` showed a melting point of 179 to 180 °C.

The compound `COC(=O)c1ccc(C)cc1N(C)S(C)(=O)=O` came in with a melting point of 100 to 103 °C.

`O=C(O)/C=C/c1ccc(N2CCCC2)nc1` displayed a melting point of 170 °C.

On to `Cc1nc2cc(C34CC5CC(CC(C5)C3)C4)cc(-c3ccc(C=C4SC(=S)NC4=O)cc3)c2o1`, for which the melting point was greater than 360 °C.

In turn, `CCCc1nsc(N=C(Cl)N(C)C)c1C#N` returned a melting point of 108 to 109 °C.

On to `COc1ccc2[nH]cc(CC3=CCCN(CCCC(=NO)c4ccc(F)cc4)C3)c2c1`, for which the melting point lay within 129 to 130 °C.

Compound `CCCNCc1cnc(-c2ncn3c2[C@@H]2CCN2C(=O)c2sccc2-3)o1` returned a melting point of 145 to 147 °C.

As for `O=C(Nc1ccc2ccc(Cl)nc2n1)c1ccncc1`, the melting point is 220 °C.

For the compound `CC(=O)Nc1ccc2c(c1)CC2OC#N` (configuration not stated), the melting point was in the range of 163 to 168 °C.

On to `COc1nc(Cc2ccccc2NS(=O)(=O)C(F)(F)F)nc(OC)n1`, for which the melting point was 101 to 108 °C.

In turn, `CCC(=N)NC(=O)Nc1ccc(Cl)cc1` registered a melting point of 191 to 192 °C.

`O=C(Nc1ccc2ccc(Cl)nc2n1)c1cccs1` yielded a melting point of 244 °C.

Compound `COc1ccc(CC(=O)NC(NC(=NC#N)Nc2cc(Cl)ccc2F)C(C)(C)C)cc1OC` (configuration not stated) came in with a melting point of 187 to 188 °C.

On to `CC(=O)N(CCCOc1ccc(C(=O)O)cc1)c1ccc(Cl)cc1`, for which the melting point lay in the range of 169 to 171 °C.

For `Cc1cc(C)nc(OC(C)C(=O)NS(=O)(=O)c2ccccc2)n1` (configuration not stated), the melting point was 188 °C.

For the compound `C=CCNc1ccc([N+](=O)[O-])cc1C(=O)c1ccccc1`, the melting point came out at 97 °C.

Compound `N#Cc1ccc2nc3sc(-c4ccccc4)cc3c(=O)n2c1` yielded a melting point of 349 to 351 °C.

Turning to `CC(C)(NC(=O)C1=C(C(=O)Nc2cc(OC3CCCC3)c(Cl)cc2F)CCCC1)c1ccccc1`, the melting point was in the range of 206 to 207 °C.

Regarding `CCS(=O)(=O)N1CCN(Cc2ccc(COc3cccc4c3CN(C3CCC(=O)NC3=O)C4=O)cc2)CC1` (configuration not stated), the melting point lay in the range of 135 to 137 °C.

For the compound `CCn1cc(C(=O)c2ccccc2)c(=O)c2cn(C)nc21`, the melting point was 217 to 218 °C.

Consider `COC(=O)CCn1nnnc1C1N2C(=O)C(NC(c3ccccc3)(c3ccccc3)c3ccccc3)C2SC1(C)C` (configuration not stated), for which the melting point was 94 to 98 °C.

Compound `CS(=O)(=O)c1ccc(-c2nc(C(F)(F)F)nc(NN)c2-c2ccccc2)cc1` registered a melting point of 272 to 275 °C.

Take `COc1ccc2[nH]c(-c3cc4cccnc4n3S(=O)(=O)c3ccc(C)cc3)cc2c1`: the melting point lay within 226 to 227 °C.

`COc1cc2c(cc1Nc1ncc(Cl)c(Nc3cc(C(N)=O)ccc3OC)n1)CCN(CCS(C)(=O)=O)CC2` gave a melting point of 232 to 243 °C.

As for `COc1cc(CCCn2ccnc2)ccc1OCc1coc(-c2ccc(C)s2)n1`, the melting point is 92 to 93 °C.

Take `COc1ccc(COC(=O)CCc2nc(-c3ccc(Cl)cc3)co2)cc1`: the melting point was in the range of 69 to 70 °C.

For the compound `Cc1cc(O)c(O)cc1Br`, the melting point is 92 to 98 °C.

As to `Cc1cccc2c1Sc1nccnc1N2`, the melting point was in the range of 165 to 166 °C.

`CC(O)C(=O)Nc1ccc(C2=NNC(=O)CC2C)cc1` (configuration not stated) gave a melting point of 181 to 182 °C.

`CCOC(=O)n1cc(C=O)c(-c2ccc([N+](=O)[O-])o2)n1`: the melting point fell in the range of 140 to 141 °C.

In the case of `C=C(C(=O)c1ccc(OC)c(Cl)c1Cl)C1CCCC1`, the melting point was in the range of 59 to 63 °C.

`c1nc(Nc2ccc3[nH]ccc3c2)c2sc(-c3ccsc3)cc2n1` gave a melting point of 178 to 189 °C.

Consider `O=C1CN2Cc3cc(C(=O)c4cccnc4)ccc3N=C2N1`, for which the melting point was 275 °C.

`COc1cc(Br)ccc1N`: the melting point is 56.5 to 58 °C.

With `CC1OC(n2c(Cl)nc3cc(Cl)c(Cl)cc32)C(O)C1O` (configuration not stated), the melting point fell in the range of 85 to 86 °C.

`COC(=O)N[C@@H]1CCc2ccc(Br)cc2C1` showed a melting point of 99 to 100 °C.

In turn, `Cc1noc(NS(=O)(=O)c2sc3ccc(Cl)cc3c2C)c1Br` showed a melting point of 153 to 155 °C.

`C=CCOc1ccccc1C=C(C=O)C(C=O)=Cc1ccccc1OCC=C` displayed a melting point of 117 to 118 °C.

`CCOC(=O)c1cn(CC)c2ncnn2c1=O` yielded a melting point of 129 to 131 °C.

Regarding `CCCN(C(C)C)C1COc2cccc(C(=O)NC(C)C)c2C1` (configuration not stated), the melting point turned out to be 124 °C.

In turn, `Nc1nc(N)c(-c2cc(Cl)cc(Cl)c2Cl)nc1Br` came in with a melting point of 222 to 224 °C.

`O=C1Nc2cc(F)ccc2C1c1ncnc2nn(C3CCCCC3)cc12` (configuration not stated) came in with a melting point of 297 to 300 °C.

In turn, `O=C(NCCCCO)OCc1ccccc1` showed a melting point of 80 to 81 °C.

Compound `N#CC(CNC(=O)Nc1cncnc1)C(=O)O` (configuration not stated) yielded a melting point of 183 °C.

In turn, `N#Cc1ccc(Nn2cnnc2)cc1-c1ccc(OCc2ccccc2)cc1` gave a melting point of 180 to 182 °C.
